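In this assay, cells in 96-well plates receive the compound at five concentrations for 48 hours. Endpoints are linearly interpolated between the surrounding concentrations. At the TGI there is no net growth.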
Experiments:
Experiment in all cases: NCI tumour cell line growth inhibition, 48 h
OVCAR-8 ovarian = tested on: OVCAR-8 ovarian
HCC-2998 colon = tested on: HCC-2998 colon
HCT-116 colon = tested on: HCT-116 colon
SK-MEL-28 melanoma = tested on: SK-MEL-28 melanoma
MOLT-4 leukemia = tested on: MOLT-4 leukemia
NCI-H226 lung = tested on: NCI-H226 lung
NCI-H522 lung = tested on: NCI-H522 lung
UACC-257 melanoma = tested on: UACC-257 melanoma
OVCAR-5 ovarian = tested on: OVCAR-5 ovarian
PC-3 prostate = tested on: PC-3 prostate

| Compound | TGI (OVCAR-8 ovarian) [µM] | TGI (HCC-2998 colon) [µM] | TGI (HCT-116 colon) [µM] | TGI (SK-MEL-28 melanoma) [µM] | TGI (MOLT-4 leukemia) [µM] | TGI (NCI-H226 lung) [µM] | TGI (NCI-H522 lung) [µM] | TGI (UACC-257 melanoma) [µM] | TGI (OVCAR-5 ovarian) [µM] | TGI (PC-3 prostate) [µM] |
| --- | --- | --- | --- | --- | --- | --- | --- | --- | --- | --- |
| COc1cccc(C2c3cc4c(cc3OC(NNS(=O)(=O)c3ccc(C)cc3)C2C)OCO4)c1O (stereo not given) | > 100 | > 100 | 30.1 | 78.8 | 52.1 | > 100 | 35.9 | > 100 | > 100 | 65.8 |
| Cc1ccc(NC(c2ccccc2)P(=O)(c2ccccc2)c2ccccc2)cc1 (stereo not given) | > 100 | > 100 | > 100 | > 100 | > 100 | > 100 | > 100 | > 100 | > 100 | > 100 |
| O=C(O)COc1c(Cl)cc(Cl)c(C(c2c(Cl)cc(Cl)c(OCC(=O)O)c2Cl)C(Cl)(Cl)Cl)c1Cl | > 100 | 28.6 | > 100 | > 100 | > 100 | 64.1 | > 100 | 59.8 | 67.6 | > 100 |
| CNC(=O)OC1/C(C)=C\C(C)C(O)C(OC)CC(C)CC2=C(OC)C(=O)C=C(C2=O)N(C)C(=O)/C(C)=C/C=C\C1OC (stereo not given) | 21.1 | 21.4 | 21.1 | 19.2 | 3.74 | 36.7 | 6.09 | 19 | 22.7 | 26 |

From PubChem BioAssay (NCI)
